The subject of assay [1] is edema of the paw induced by carragenine. Kind of assay: Edema of rat paws induced by carragenine. Format: in vivo, male rats of the Wistar type. The settings on record: i.p. 30 minutes before carragenine 1%; molar dose equivalent to diclofenac; paw volume up to 4 hours. The procedure: For the performance of this one test, animals, such as, for example, male rats of the Wistar type were used, which weighed between 150-180 g. These rats were acquired from CEMIB/UNICAMP.
Five rats were treated with the diclofenac, five rats with the modified diclofenac and five rats with the DMSO vehicle.
After a period of approximately 30 minutes, the animals were inoculated with an intraplantary injection of approximately 0.1 mL of a solution of carragenine 1% in saline solution, at the right hind paw, while the contralateral paw received the same volume but only of the saline solution.
The quantification of the volume of the paw was performed by means of an adequate instrument, such as, for example a pletismometer. The volume of the paws was checked before the administration of the carragenine (T0) and after 30 minutes, 1, 2, 3 and 4 hours. The T0 value was subtracted from the other values arrived at.

The target in assay [2] is COX-1 (Homo sapiens, UniProt P23219). The conditions noted are these: read-out: concentration responsible for the inhibition of 50% of the production of TXA2 (IC50); human whole blood without anticoagulant, 37° C., 1 hour, serum.
Sequence of COX-1 (P23219 24-599): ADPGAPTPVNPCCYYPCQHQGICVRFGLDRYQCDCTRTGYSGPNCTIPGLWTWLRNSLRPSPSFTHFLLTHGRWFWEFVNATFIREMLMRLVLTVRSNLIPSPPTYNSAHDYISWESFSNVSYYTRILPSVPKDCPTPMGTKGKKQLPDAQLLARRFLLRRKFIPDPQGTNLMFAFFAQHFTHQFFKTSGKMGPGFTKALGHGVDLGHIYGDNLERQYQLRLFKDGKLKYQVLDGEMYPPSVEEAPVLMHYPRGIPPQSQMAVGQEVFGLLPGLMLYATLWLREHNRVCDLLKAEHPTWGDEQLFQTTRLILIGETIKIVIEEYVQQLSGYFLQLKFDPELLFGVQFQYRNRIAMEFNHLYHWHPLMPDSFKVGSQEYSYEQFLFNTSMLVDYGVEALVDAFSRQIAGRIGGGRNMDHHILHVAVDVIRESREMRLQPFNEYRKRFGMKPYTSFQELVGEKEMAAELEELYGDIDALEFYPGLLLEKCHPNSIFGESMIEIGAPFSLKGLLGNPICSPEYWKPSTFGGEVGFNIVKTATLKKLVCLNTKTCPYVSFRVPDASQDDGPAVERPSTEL

Take `O=C(Cc1ccccc1Nc1c(Cl)cccc1Cl)OCc1ccc2c(c1)no[n+]2[O-]` [modified diclofenac, [2-(2,6-dichloro-phenylamino)-phenyl]-acetic acid 1-oxy-benzo[1,2,5]oxadiazol-5-ylmethyl ester]: the “inhibition of the edema of the paw induced by carragenine (paw volume, FIG. 1)” value in assay [1] is recorded as “capable of inhibiting the edema of the paw induced by carragenine in the same way that the standard diclofenac”. Also, the IC50 in assay [2] is approximately 40.4 µM.
